Columns and labels:
[1] = test system: Human Panc-1 pancreatic tumor xenograft; assay: Median survival, human Panc-1 pancreatic tumor xenograft in nude mouse; format: in vivo
Procedure: In the ITPP treatment group, mice with tumor xenograft were treated with ITPP (2 mg/Kg) weekly during the period of day 14 to day 49. In the gemcitabine treatment group, mice with tumor xenograft were treated with gemcitabine (100 mg/Kg) on days 16, 18 and 20. Animals in the control group were not treated.
In the combination treatment group, mice with tumor xenograft were treated with ITPP (2 mg/Kg) in combination with gemcitabine (25 mg/Kg or 50 mg/Kg) weekly during the period of day 14 to day 49. In the
gemcitabine treatment group, mice with tumor xenograft were treated with gemcitabine (100 mg/Kg) on days 16, 18 and 20. Animals in the control group were not treated.
In the xenograft tumor model, mice in the combination treatment group received administration of ITPP (2 mg/Kg) in combination with gemcitabine (25 mg/Kg or 50 mg/Kg) weekly during the period of day 14 to day 49. Mice in the gemcitabine treatment group received administration of gemcitabine (100 mg/Kg) on days 16, 18 and 20. Mice in the control group were not treated.
(§1) Median survival time of animals with ductal pancreatic adenocarcinoma treated with OXY111A and/or gemcitabine was followed and summarized in Table 1 below: […]

[2] = test system: Syngeneic rat tumor in rat (ductal pancreatic adenocarcinoma); assay: Median survival, syngeneic rat pancreatic tumor in rat; format: in vivo
Procedure: In the ITPP treatment group, rats with pancreatic tumor were treated with ITPP (1.5 mg/Kg) weekly during the period of day 14 to day 49. In the gemcitabine treatment group, rats with pancreatic tumor were treated with gemcitabine (100 mg/Kg) on days 16, 18 and 20. Animals in the control group were not treated.
In the combination treatment group, rats with pancreatic tumor were treated with ITPP (1.5 mg/Kg) in combination with gemcitabine (25 mg/Kg or 50 mg/Kg) weekly during the period of day 14 to day 49. In the gemcitabine treatment group, rats with pancreatic tumor were treated with gemcitabine (100 mg/Kg) on days 16, 18 and 20. Animals in the control group were not treated.
In the rat pancreatic tumor model, rats in the combination treatment group received ITPP (1.5 mg/Kg) in combination with gemcitabine (25 mg/Kg or 50 mg/Kg) weekly during the period of day 14 to day 49. Rats in the gemcitabine treatment group received administration of gemcitabine (100 mg/Kg) alone on days 16, 18 and 20. Rats in the control group were not treated.
as §1

[3] = test system: Rat tumor in Nude Mouse (ductal pancreatic adenocarcinoma); assay: Median survival, rat pancreatic tumor in nude mouse; format: in vivo
Source text: as §1

[4] = test system: Human MiaPaca in Nude Mouse; assay: Median survival, human MiaPaca tumor in nude mouse; format: in vivo
Source text: as §1

B16 tumor = assay: Immune cell infiltration into B16 tumor; format: in vivo
Procedure: OXY111A was injected intraperitoneally on days 7, 8, 14, 15, 21, 22, 29 and 30. Analysis of the B16 tumor was performed on day 31.
(a) to (c) untreated B16 tumor; (d) to (f) B16 tumor treated with ITPP. Green arrows indicate the infiltrating NK cells; red arrows indicate the vessel walls.
B16 tumor cells were labeled with B16F10 DAPI; NK cells were labeled by anti-CD49bFITCl; and vessel endothelial cells were labeled by antiCD31TRITC. (a) untreated B 16 tumor; (b) and (c) B 16 tumor treated with ITPP.

[5] = test system: B16F10LucGFP subcutaneous tumors; assay: Subcutaneous melanoma model (lung metastases, vessel normalization, drug efflux pump); format: in vivo, mouse
Procedure: (§2) B16F10LucGFP cells were grown as subcutaneous tumors, after injecting 100 μl of a plug constituted by 10^5 cells in 25% Matrigel™ (50% in OptiMEM). Matrigel was from BD Biosciences and OptiMEM from Invitrogen. Mice were euthanized and tumors and lungs excised 25 days after inoculation. […] Treatment was initiated 7, 9 or 11 days post melanoma cell inoculation.
Tumor tissues were embedded in Tissue-Tek (Sakura), tissue freezing medium and snap frozen in liquid nitrogen. Cryosections were fixed and stained using a rat monoclonal IgG2a antibodies against mouse CD31 (PECAM-I, platelet/endothelial cell adhesion molecule) from eBiosciences, rabbit IgG anti-SMA (smooth muscle actin) antibody (AbCAM), or mouse IgG2a anti-P-Glycoprotein (C219) (Calbiochem), diluted 1:200 in FCS 5% in PBS. Goat IgG-FITC-labeled anti-rat immunoglobulin, goat IgG-FITC-labelled anti-rabbit immunoglobulin or goat IgG-FITC-labelled anti-mouse immunoglobulin (diluted 1:200 in PBS) was used as secondary antibodies respectively. To detect cell nuclei, sections were incubated with bis-Benzimide H 33258 (Sigma-Aldrich) 1:1000 in PBS. Specimens were mounted in Vectashield (Vector) and fluorescent microscopy detection was performed on a Zeiss 200M inverted fluorescent microscope. Tumor necrosis was analysed after Hematoxylin eosine staining of tumor sections.
MRI assays were performed with a 9.4 T horizontal magnet for small animals (94/21 USR Bruker Biospec), equipped with a 950 mT/m gradient set. Mice were placed in a linear homogeneous coil (inner diameter: 35 mm). Animals were maintained under gaseous (50% N2O: 0.7 l/min—50% O2: 0.7l/min—Isoflurane 1.5%) anesthesia, temperature kept constant at 36° C. and breathing rate was monitored during the acquisitions using air balloon placed on the mouse chest to adjust the anesthetic output. Measurement of tumor vascularization was performed by MR angiography using the Fast Low Angle Shot (FLASH) sequence both in the axial and coronal planes. The FLASH pulse sequence was adapted to the study of the evolution of the angiogenesis of the tumor. This technique allows the 3D structure of the vascular tree of the tumor on the same animal to be followed overtime.
Structural changes of microcirculation in tumors were assessed by MRA (Magnetic Resonance Angiography) adaptation of Magnetic Resonance Imaging (MRI) to follow the 3D structure of the vascular tree of the tumor.

[6] = test system: B16F10LucGFP murine melanoma cells; assay: Experimental metastasis assay (intravenous B16F10LucGFP melanoma cells), lung markers; format: in vivo, mouse
Procedure: After intravenous injection of B16F10LucGFP murine melanoma cells (10^5 cells in 0.1 ml saline) in the tail vein, mice (eight-week-old female C57BL/6 from Janvier) were treated by 1.5 g/kg ITPP IP injected every 5 days (10 mice per treatment group). Treatment was initiated at day 5 after tumor cells inoculation. 19 or 27 days later, mice were euthanized and lungs collected separately. Macroscopic lung foci were counted and luciferase was determined by chemoluminescence assay (Promega) in order to quantify the amount of melanoma cells in tissues. All animal study procedures and the use of animals were approved by the Comite d'Ethique pour l'expérimentation animale, Campus CNRS d'Orléans, France.
Lungs were homogenized in lysis buffer (Active motif). After centrifugations, clear supernatant was collected. Total protein amount was determined by BCA protein assay kit (Thermo Scientific). HIF-1α, VEGF, Tie-2 and HO-1 in lung lysates were quantified using colorimetric sandwich ELISA according to the manufacturer's instructions. The HIF-1α, VEGF and Tie-2 ELISA kits were from R&D. The HO-1 ELISA kit was from Takara.
The Taqman polymerase chain reaction primer sequences for LOX were 5′-[…]-3′ (SEQ ID NO: 1) and 5′-[…]-3′ (SEQ ID NO: 2). For β-actin (internal control), the primer sequences were 5′-[…] ATCC-3′ (SEQ ID NO: 3) and 5′-[…]-3′ (SEQ ID NO: 4). The amplified cDNAs bands were quantified with ImageQuant software (Becton and Dickinson). LOX mRNA levels were normalized relatively to β-actin mRNA.
To validate ITPP as an anti-metastatic agent, the “artificial” model of lung metastasis was used by injecting intravenously melanoma cells in mice. The B16F10LucGFP cell line was used, which is the melanoma B16F10 line transduced by GFP and luciferase reporter genes allowing to track and quantify the melanoma cells by analysis of luciferase activity in tissues.

[7] = test system: subcutaneous melanoma tumor; assay: Oxylite pO2 measurement in subcutaneous melanoma tumor; format: in vivo, mouse
Procedure: as §2
The oxylite 2000E PO2 system (Oxford Optronics) measures pO2 by determining the O2-dependant fluorescence lifetime of ruthenium chloride which is immobilized at the tip of 230-μm diameter fiber-optic probe. The lifetime of the fluorescent pulse is inversely proportional to the oxygen tension in the tip. The mouse was anesthetized with intraperitoneal injection of xylazine/ketamin before the oxylite probe tip was installed inside the tumor and oxygen pressure recorded as described.
To confirm that ITPP-RBCs counteract hypoxia in vivo, a comparison of the values of the oxygen tension inside the melanoma tumors implanted subcutaneously above the left leg, in ITPP-treated and untreated mice was performed. Oxygen pressure (pO2) was computed by determining the O2-dependent fluorescence lifetime of ruthenium chloride on the tip of a fibre-optic probe. The lifetime of the fluorescent pulse is inversely proportional to the oxygen tension in the tip of the probe. While the tumors in non-treated animals, were strongly hypoxic with an oxygen pressure value below 2 mmHg (FIG. 1), in tumors of ITPP-treated mice pO2 reached the range of 40 mmHg (FIG. 1A). This pO2 increase occurred as soon as 30 minutes after intra-peritoneal injection of ITPP (FIG. 1B, C) and was maintained at a high level, up to 40 mmHg, as shown 24 hours after injection (FIG. 1A) for at least 48 hours.

endothelial cells = assay: Endothelial cell sensitivity to chemotherapeutic drugs; format: cell-based, mouse; conditions: drug by itself, FIG. 4C
Procedure: Cell viability was evaluated by Alamar blue test (Biosource) as described by the manufacturer.

## Nc1ccn([C@@H]2O[C@H](CO)[C@@H](O)C2(F)F)c(=O)n1 [Gemcitabine, gemcitabine, reference compound]
[1]; Gemcitabine alone, 100 mg/kg
  Median survival time: 141 days
[2]; Gemcitabine alone, 100 mg/kg
  Median survival time: 58 days
[3]; Gemcitabine alone, 100 mg/kg
  Median survival time: 89 days
[4]; Gemcitabine alone, 100 mg/kg
  Median survival time: 140 days

## O=P1([O-])OC2C3OP(=O)([O-])OP(=O)([O-])OC3C3OP(=O)([O-])OP(=O)([O-])OC3C2OP(=O)([O-])O1.[Na+].[Na+].[Na+].[Na+].[Na+].[Na+] (stereo not drawn) [ITPP, hexasodium myo-inositol trispyrophosphate]
[1]; OXY111A alone, 2 mg/kg
  Median survival time: 155 days
B16 tumor; in vivo
  Infiltration of CD49b NK cells into tumor: significantly enhanced
  Presence of CD31 EC cells in tumor: significantly enhanced
B16 tumor; intraperitoneal injections on days 7, 8, 14, 15, 21, 22, 29 and 30
  Infiltration of CD68 (M2 type) macrophages into tumor: significantly enhanced
[5]; ITPP on day 9 and 14, repeated on days 18 and 19
  Tumor vasculature (MRA): less dense and remarkably normalized
[5]; ITPP on days 9, 14, 18, 19
  Tumor size: remarkable reduction of the tumor size
[5]; implanted primary tumors, immunostaining
  P-glycoprotein drug efflux pump in tumor: down-regulates
[5]; initiation of ITPP on day 9 or 11
  Lung metastases: less effective
[5]; initiation on day 9 or 11, chronic administrations
  Lung metastases: enhancement of pulmonary metastases
[5]; short-term treatment (3 ITPP injections, 5 days intervals) started on day 7
  Lung metastases: reduced significantly the lung metastases
[2]; OXY111A alone, 1.5 mg/kg
  Median survival time: 102 days
[3]; OXY111A alone, 2 mg/kg
  Median survival time: 107 days
[6]; ELISA on lung lysates
  Tie-2 expression in lungs: re-induced
  VEGF level in lungs: decreased to control levels
[6]; ELISA on lung lysates, vs untreated melanoma bearing mice
  HIF-1α levels in lungs: decreased dramatically
[6]; ELISA, compared to non-treated mice
  HO-1 expression in lungs: significantly reduced
[6]; ITPP treatment started from day 5, until day 27
  Metastatic nodules in lung: very significantly reduced
[6]; semi-quantitative PCR
  Lysyl-oxidase (LOX) mRNA: beneficial effect
[7]; 24 hours after injection
  pO2 level maintained in tumor: up to 40 mmHg
[7]; after injection
  Duration of high tumor pO2: at least 48 hours
[7]; after intra-peritoneal injection of ITPP
  Time to pO2 increase in tumor: 30 minutes
[7]; parallel measurement in same animal
  pO2 in muscle of non tumoral leg: no change or any effect on pO2 was detected
[7]; tumors of ITPP-treated mice, FIG. 1A
  Oxygen pressure (pO2) in tumor: ~40 mmHg
[4]; OXY111A alone, 2 mg/kg
  Median survival time: 155 days

## CC(=O)O[C@H]1C(=O)[C@@]2(C)[C@H]([C@H](OC(=O)c3ccccc3)[C@]3(O)C[C@H](OC(=O)[C@H](O)[C@@H](NC(=O)c4ccccc4)c4ccccc4)C(C)=C1C3(C)C)[C@]1(OC(C)=O)CO[C@@H]1C[C@@H]2O [Paclitaxel, paclitaxel]
Endothelial cells
  Growth of endothelial cells: inhibited the growth of the endothelial cells

## N.N.[Cl][Pt][Cl] [cisplatin, cis-dichlorodiamine platinum]
Endothelial cells
  Growth of endothelial cells: inhibited the growth of the endothelial cells
